In patent US20240082282A1 (priority 2020, published 2024):

System: murine gut microbiome
Assay: Impact on the murine fecal microbiome (16S rRNA sequencing)
Conditions: mouse, in vivo
Protocol: Stool samples were collected and V4 region of the 16s rRNA gene was amplified using primers and sequenced (IonTorrent).
Fecal pellets were collected 3 days before and 3 days after antibiotic treatment and were stored at −80° C. in PBS. Sequencing of a stool pellet from each mouse from before and after treatment was performed by MR DNA (www.mrdnalab.com, Shallowater, TX, USA) on an Ion Torrent PGM. Using PCR primers, the V4 variable region of the 16SrRNA gene was amplified in a single-step 30 cycle PCR with the HotStarTaq Plus Master Mix Kit (Qiagen, USA). The following conditions were used: 94° C. for 3 minutes and 30 cycles of 94° C. for 30 seconds, 53° C. for 40 seconds and 72° C. for 1 minute, then a final elongation step for 5 minutes at 72° C. […] Barcodes and primers and then sequences<150 bp were removed. Further, sequences with homopolymer runs exceeding 6 bp and sequences with ambiguous calls were removed. The sequences were then denoised, OTUs were generated, and chimeras were removed; OTUs were clustered at 3% divergence. Taxonomic classification was performed using BLASTn against a database derived from RDPII available at www.rdp.cme.msu.edu) and NCBI (www.ncbi.nlm.nih.gov). The change in relative abundance of the most abundant genera from before to after treatment of each individual mouse was reported. Further, raw sequences were processed in Qiita (Gonzalez, A., et al. (2018). Nat Methods 15, 796-798; the contents of which are herein incorporated by reference in its entirety) and were demultiplexed, trimmed to 100 bp, and closed reference OTU picking was performed against the Greengenes database at 97% similarity (McDonald, D. et al. (2012). ISME J 6, 610-618; the contents of which are herein incorporated by reference in its entirety). The alpha diversity based on the Simpson index was calculated in Qiita. The change in the Simpson index was calculated for the fecal microbiome of each mouse from before to after treatment. Statistical significance was calculated using a one-way ANOVA with Tukey's multiple comparisons test (p<0.05).

## CC1(C)S[C@@H]2[C@H](NC(=O)[C@H](N)c3ccccc3)C(=O)N2[C@H]1C(=O)O [Ampicillin, reference compound]
  Changes in the composition of the microbiota: significant changes
